Molecular target: T1, CysLT2 (Homo sapiens, UniProt Q9NS75)
T1 construct: expressed in transfected cells; membranes used
T1 sequence (Q9NS75 1-346): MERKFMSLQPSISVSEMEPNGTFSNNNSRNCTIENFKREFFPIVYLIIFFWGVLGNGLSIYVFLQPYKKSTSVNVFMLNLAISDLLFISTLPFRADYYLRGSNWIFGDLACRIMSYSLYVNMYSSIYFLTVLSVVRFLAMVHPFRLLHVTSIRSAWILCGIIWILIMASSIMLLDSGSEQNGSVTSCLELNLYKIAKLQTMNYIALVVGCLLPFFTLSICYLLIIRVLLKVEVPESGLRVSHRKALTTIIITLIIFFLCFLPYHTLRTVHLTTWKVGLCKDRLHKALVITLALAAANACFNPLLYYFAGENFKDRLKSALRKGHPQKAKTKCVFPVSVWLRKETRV
Test: Competition for [^3H]LTD4-specific binding to CysLT2 membranes
Experimental: Membrane preparation for CysLT2 receptor binding assay. Peak stable cells transformed with CysLT2 expression vector were maintained in D-MEM supplemented with 10% FCS and 2 μg/ml of puromycin. Cells were collected and kept at −80° C. until membrane preparation. Frozen cells were suspended in cold membrane preparation buffer (50 mM Tris-HCl pH 7.5, protease inhibitor mixture(#1873580, Roche)), and disrupted with Polytron (Cat.#PT10-35, Kinematica AG, Switzerland). Disrupted cells were centrifuged at 500×g for 5 minutes at 4° C. to remove the nuclear fraction, and supernatants were applied to high speed centrifugation (45,000×g, 15 minutes, 4° C.) to precipitate membrane fraction. After the supernatant was removed, membrane preparation buffer were added to the pellet and homogenized gently on ice. Glycerol (final conc.;10%) and bovine serum albumin (final conc.:0.5%, Cat#A-3059, Sigma) were added to the membrane suspension as stabilizer. Membrane suspension was then divided into small vials and frozen in liquid nitrogen. After 1 hour freezing, vials were kept at −80° C. until use.
At the end of the binding reaction, 100 μl of the reaction mixture was transferred to a 96-well filtration plate (Cat.#MAFB-N0B, Millipore), and washed 3 times with 200 μl/well of cold binding buffer. […] The specific binding (total binding—non-specific binding) was measured by liquid scintillation counter (TopCount™, Packard) and expressed as the relative binding (%) in the figure.
Inhibition assay using several antagonists.

inhibition of [^3H]LTD4 binding to CysLT2 (at concentrations up to 10^−6 M, 0.4 nM [^3H]-labeled LTD4)	IC50 [µM]	Compound
did not inhibit	–	CCCCC/C=C\C[C@@H](O)/C=C/C=C/C=C\[C@@H](O)CCCC(=O)O [LTB4, Leukotriene B4]
–	2	CCOC(=O)c1cn(-c2ccc(C3=CC(F)(F)C3(F)F)cc2)c2cc(F)c(F)cc2c1=O [Bay y9773]
–	1	O=C(O)CCCNC(=O)c1cc(C(=O)O)ccc1OCCCc1ccc(OCCCCOc2ccccc2)cc1 [Bay y8934]
